Experimental data taken from PMC8655892 (ACS Omega, 2021).
Where a name gives a salt, the structure may show the parent alone. Values belong to the compound of their own block, whether it stands above or below them.

Experiments:
[1] = Metabolic stability in mouse liver microsomes; assay type: in vitro ADME; settings: 5 µM, 0.5 mg/mL microsomal protein, NADPH, up to 30 min
[2] = Stability of rottlerin in plasma under storage conditions; assay type: in vitro ADME, mice; settings: n=4
[3] = In vivo pharmacokinetics after oral and IV administration; parameters: species or system Balb/C mice
[4] = Plasma stability in mice plasma; settings: 0–2 h, 10 µM, 37°C
[5] = Metabolic stability in human liver microsomes; assay type: in vitro ADME; settings: 5 µM, 0.5 mg/mL microsomal protein, NADPH, up to 30 min
[6] = Plasma protein binding by rapid equilibrium dialysis; settings: mouse
[7] = intravenous, 1 mg/kg, Balb/C mice
[8] = male, Balb/C, mouse, plasma, iv, 1 mg/kg
[9] = male, Balb/C, mouse, plasma, po, 4 mg/kg

Structure (SMILES): CC(=O)c1c(O)c(C)c(O)c(Cc2c(O)c3c(c(C(=O)/C=C/c4ccccc4)c2O)OC(C)(C)C=C3)c1O [Rottlerin]
remained intact in MLMs [1]: > 75% | stability study accuracy (%) ([2]; autosampler: processed samples, 4 °C, 24 h, HQC 800 ng/mL): 92.89% | stability study accuracy (%) ([2]; autosampler: processed samples, 4 °C, 24 h, LQC 5.7 ng/mL): 90.04% | stability study accuracy (%) ([2]; freeze–thaw: three cycles, −20 °C / room temperature, HQC 800 ng/mL): 91.69% | stability study accuracy (%) ([2]; freeze–thaw: three cycles, −20 °C / room temperature, LQC 5.7 ng/mL): 88.60% | Cl [3, 7]: 5.83 ± 0.5 mL/min/kg | T1/2 [3, 7]: 2.9 ± 0.8 h | Vd [3, 7]: 1.4 ± 0.4 L/kg | Cl ([3]; intravenous, 1 mg/kg, Balb/C mice, listed as rottlerin): ≤ 17 mL/min/kg | exposure (plasma levels) ([3]; iv, 1 mg/kg, Balb/C mice): ~3000 ng·h/mL | AUC(0-inf) [3, 8]: 2920 ± 292 ng·h/mL | AUC(0-t) [3, 8]: 2850 ± 311 ng·h/mL | C0 [3, 8]: 2110 ± 359 ng/mL | half-life ([3]; male, Balb/C, mouse, plasma, iv, 1 mg/kg, T1/2, intravenous, Balb/C mice): > 2 h | AUC(0-inf) [3, 9]: 4090 ± 348 ng·h/mL | AUC(0-t) [3, 9]: 4050 ± 360 ng·h/mL | Cmax [3, 9]: 660 ± 60 ng/mL | half-life ([3]; male, Balb/C, mouse, plasma, po, 4 mg/kg, T1/2, oral, Balb/C mice): > 2 h | Tmax ([3]; male, Balb/C, mouse, plasma, po, 4 mg/kg, Tmax, Balb/C mice): ~2.4 h | oral bioavailability ([3]; oral 4 mg/kg vs IV 1 mg/kg, Balb/C mice): 35–36% | Cl ([3]; oral, 4 mg/kg, Balb/C mice): 16.8 ± 1.3 mL/min/kg | T1/2 ([3]; oral, 4 mg/kg, Balb/C mice): 2.7 ± 0.4 h | Vd ([3]; oral, 4 mg/kg, Balb/C mice): 3.8 ± 0.6 L/kg | exposure (plasma levels) ([3]; oral, 4 mg/kg, Balb/C mice): around 4 μg h/mL | Cl ([3]; oral, 4 mg/kg, Balb/C mice, listed as rottlerin): ≤ 17 mL/min/kg | degradation in mice plasma [4]: < 5% | remained intact in HLMs [5]: over 91%

fraction unbound at 4 h, 5 µM [6]: 0.793
Structure (SMILES): CNC(=C[N+](=O)[O-])NCCSCc1ccc(CN(C)C)o1 [ranitidine, ranitidine hydrochloride]
